Test results reported in ChEMBL document CHEMBL1151864, “Substrate based peptide aldehyde inhibits bacterial type I signal peptidase” (Bioorg Med Chem Lett, 2009).
≈ marks a conversion by molar mass, not a printed value. Calls of active or inactive are those of the source. No cut-off for these calls is given here. Residues, ends and D or L forms follow the SMILES beside them. *: point of attachment. Decanoyl = CCCCCCCCCC(=O)*

Tests used:
[1] = Inhibition of Staphylococcus aureus type I signal peptidase SpsB-mediated processing of internally quenched fluorescent synthetic peptide substrate
[2] = system: Staphylococcus aureus; assay: Inhibition of Staphylococcus aureus type I signal peptidase SpsB-mediated processing of internally quenched fluorescent synthetic peptide substrate at 200 uM
[3] = biological target: Signal peptidase I (Escherichia coli K-12) (UniProt P00803); assay: (§1) Inhibition of Escherichia coli type I signal peptidase lepB
Signal peptidase I (Escherichia coli K-12), sequence (P00803 whole entry): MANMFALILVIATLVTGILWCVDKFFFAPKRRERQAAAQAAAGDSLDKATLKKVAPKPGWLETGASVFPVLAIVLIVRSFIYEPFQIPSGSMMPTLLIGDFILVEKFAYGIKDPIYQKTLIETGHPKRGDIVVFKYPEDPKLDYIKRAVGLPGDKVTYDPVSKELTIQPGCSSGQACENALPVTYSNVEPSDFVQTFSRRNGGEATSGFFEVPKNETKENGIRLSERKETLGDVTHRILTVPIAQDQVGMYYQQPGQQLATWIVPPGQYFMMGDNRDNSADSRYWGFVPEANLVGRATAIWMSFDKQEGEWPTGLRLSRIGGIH

[4] = biological target: Signal peptidase I (Escherichia coli K-12, UniProt P00803); assay: as §1
Signal peptidase I, sequence (P00803 whole entry): as above

[5] = system: Staphylococcus aureus; assay: Antimicrobial activity against Staphylococcus aureus by broth microdilution method; type: functional
[6] = system: Staphylococcus epidermidis; assay: Antimicrobial activity against Staphylococcus epidermidis by broth microdilution method; type: functional
[7] = system: Escherichia coli; assay: Antimicrobial activity against Escherichia coli by broth microdilution method; type: functional

| SMILES | IC50 [1] | inhibition [2] | Activity [3] | other results |
| --- | --- | --- | --- | --- |
| CCCCCCCCCC(=O)N[C@H](C(=O)N1CCC[C@H]1C(=O)N[C@H](C(=O)N[C@@H](C)C(=O)N[C@@H](CCCCN)C(=O)N[C@@H](C)C(=O)N1CCC[C@H]1C(=O)N[C@@H](CO)C(=O)N[C@@H](CCCCN)C(=O)N[C@H](C(=O)N[C@@H](CC(=O)O)C(=O)N[C@@H](CC(=O)O)C(=O)O)[C@@H](C)CC)[C@@H](C)O)[C@@H](C)O (Decanoyl-TPTAKAPSKIDD-OH) | 4.8 µM | 106% | inactive | – |
| CCCCCCCCCC(=O)N1CCC[C@H]1C(=O)N[C@H](C(=O)N[C@@H](C)C(=O)N[C@@H](CC(N)=O)C(=O)N[C@@H](C)C=O)[C@@H](C)O (Decanoyl-PTANA-aldehyde) | 0.09 µM | – | – | IC50 [4]: 13.4 µM; MIC [5]: 125 µg/mL (≈ 205 µM); MIC [6]: 500 µg/mL (≈ 819 µM); MIC [7]: > 500 µg/mL |
| CCCCCCCCCC(=O)N[C@@H](CC(C)C)C(=O)N[C@H](C(=O)N1CCC[C@H]1C(=O)N[C@H](C(=O)N[C@@H](C)C(=O)N[C@@H](CCCCN)C(=O)N[C@@H](C)C(=O)N1CCC[C@H]1C(=O)N[C@@H](CO)C(=O)N[C@@H](CCCCN)C(=O)N[C@H](C(=O)N[C@@H](CC(=O)O)C(=O)N[C@@H](CC(=O)O)C(=O)O)[C@@H](C)CC)[C@@H](C)O)[C@@H](C)O (Decanoyl-LTPTAKAPSKIDD-OH) | 0.8 µM | 107% | inactive | Activity [5]: inactive; Activity [6]: inactive; Activity [7]: inactive |
| CCCCCCCCCC(=O)N1CCC[C@H]1C(=O)N[C@H](C(=O)N[C@@H](C)C(=O)N[C@@H](CCCCN)C(=O)N[C@@H](C)C(=O)N1CCC[C@H]1C(=O)N[C@@H](CO)C(=O)N[C@@H](CCCCN)C(=O)N[C@H](C(=O)N[C@@H](CC(=O)O)C(=O)N[C@@H](CC(=O)O)C(=O)O)[C@@H](C)CC)[C@@H](C)O (Decanoyl-PTAKAPSKIDD-OH) | 3.2 µM | 106% | inactive | – |
| CCCCCCCCCC(=O)N[C@H](C(=O)N[C@@H](C)C(=O)N[C@@H](CCCCN)C(=O)N[C@@H](C)C(=O)N1CCC[C@H]1C(=O)N[C@@H](CO)C(=O)N[C@@H](CCCCN)C(=O)N[C@H](C(=O)N[C@@H](CC(=O)O)C(=O)N[C@@H](CC(=O)O)C(=O)O)[C@@H](C)CC)[C@@H](C)O (Decanoyl-TAKAPSKIDD-OH) | 30.8 µM | 98% | inactive | – |

Now from value to compound, other results behind:

| IC50 [1] | inhibition [2] | Activity [3] | SMILES | other results |
| --- | --- | --- | --- | --- |
| 22.5 µM | 92.9% | inactive | CCCCCCCCCC(=O)N[C@@H](CC(C)C)C(=O)N[C@H](C(=O)N1CCC[C@H]1C(=O)N[C@H](C(=O)N[C@@H](C)C(=O)N[C@@H](CCCCN)C(=O)N[C@@H](C)C(=O)N1CCC[C@H]1C(=O)N[C@@H](CO)C(=O)O)[C@@H](C)O)[C@@H](C)O (Decanoyl-LTPTAKAPS-OH) | – |
| > 200 µM | 0% | inactive | CCCCCCCCCC(=O)N[C@@H](C)C(=O)N[C@@H](CCCCN)C(=O)N[C@@H](C)C(=O)N1CCC[C@H]1C(=O)N[C@@H](CO)C(=O)N[C@@H](CCCCN)C(=O)N[C@H](C(=O)N[C@@H](CC(=O)O)C(=O)N[C@@H](CC(=O)O)C(=O)O)[C@@H](C)CC (Decanoyl-AKAPSKIDD-OH) | – |
| > 200 µM | 21.6% | inactive | CC[C@H](C)[C@H](NC(=O)[C@H](CCCCN)NC(=O)[C@H](CO)NC(=O)[C@@H]1CCCN1C(=O)[C@H](C)NC(=O)[C@H](CCCCN)NC(=O)[C@H](C)NC(=O)[C@@H](NC(=O)[C@@H]1CCCN1C(=O)[C@@H](NC(=O)[C@@H](N)CC(C)C)[C@@H](C)O)[C@@H](C)O)C(=O)N[C@@H](CC(=O)O)C(=O)N[C@@H](CC(=O)O)C(=O)O (H-LTPTAKAPSKIDD-OH) | – |
| 2.6 µM | 107% | inactive | CCCCCCCCCC(=O)N[C@@H](CC(C)C)C(=O)N[C@H](C(=O)N1CCC[C@H]1C(=O)N[C@H](C(=O)N[C@@H](C)C(=O)N[C@@H](CCCCN)C(=O)N[C@@H](C)C(=O)N1CCC[C@H]1C(=O)N[C@@H](CO)C(=O)N[C@@H](CCCCN)C(=O)N[C@H](C(=O)O)[C@@H](C)CC)[C@@H](C)O)[C@@H](C)O (Decanoyl-LTPTAKAPSKI-OH) | – |
| 1 µM | 108% | inactive | CCCCCCCCCC(=O)N[C@@H](CC(C)C)C(=O)N[C@H](C(=O)N1CCC[C@H]1C(=O)N[C@H](C(=O)N[C@@H](C)C(=O)N[C@@H](CCCCN)C(=O)N[C@@H](C)C(=O)N1CCC[C@H]1C(=O)N[C@@H](CO)C(=O)N[C@@H](CCCCN)C(=O)O)[C@@H](C)O)[C@@H](C)O (Decanoyl-LTPTAKAPSK-OH) | – |
| 5 µM | 108% | inactive | CCCCCCCCCC(=O)N[C@@H](CC(C)C)C(=O)N[C@H](C(=O)N1CCC[C@H]1C(=O)N[C@H](C(=O)N[C@@H](C)C(=O)N[C@@H](CCCCN)C(=O)N[C@@H](C)C(=O)N1CCC[C@H]1C(=O)N[C@@H](CO)C(=O)N[C@@H](CCCCN)C(=O)N[C@H](C(=O)N[C@@H](CC(=O)O)C(=O)O)[C@@H](C)CC)[C@@H](C)O)[C@@H](C)O (Decanoyl-LTPTAKAPSKID-OH) | – |
